Measured values published in the Kinase Knowledgebase extract (Sharma et al. 2016).
pEC50, pIC50: −log10 of the molar value.

Assays:
MAPK14 (human) = MAPK14 (human) (UniProt Q16539); details: Monocyte
MAPK14 (Balb/c mice) = test: TNF-alpha Inhibition (Balb/c Mice)
MAPK14 = MAPK14 (UniProt Q16539); test: P38-alpha Kinase Inhibition
Sequence of MAPK14 (Q16539 whole entry, looked up): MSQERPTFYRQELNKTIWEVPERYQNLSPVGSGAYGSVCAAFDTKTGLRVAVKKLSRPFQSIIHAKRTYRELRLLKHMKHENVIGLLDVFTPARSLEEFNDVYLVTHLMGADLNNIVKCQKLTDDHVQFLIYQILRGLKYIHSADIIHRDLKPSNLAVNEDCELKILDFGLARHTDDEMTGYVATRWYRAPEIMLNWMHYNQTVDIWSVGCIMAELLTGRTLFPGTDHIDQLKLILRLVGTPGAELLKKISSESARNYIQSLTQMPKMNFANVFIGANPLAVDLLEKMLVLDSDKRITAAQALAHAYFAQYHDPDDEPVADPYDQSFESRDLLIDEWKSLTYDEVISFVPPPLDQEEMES

Sequence of MAPK14 (human) (Q16539 whole entry, looked up): as above

pEC50 (MAPK14 (human)) | pIC50 (MAPK14) | Structure (SMILES) | ED50 (MAPK14 (Balb/c mice)) [mg/kg]
6.84 |  | Fc1ccc(-c2[nH]c([C@H]3OC[C@@H](Cc4ccccc4)CO3)nc2-c2ccncc2)cc1 | 
7.26 |  | C[C@]1(N)CO[C@@H](c2nc(-c3ccncc3)c(-c3ccc(F)cc3)[nH]2)OC1 | 
7.42 |  | C[C@]1(CN)CO[C@H](c2nc(-c3ccncc3)c(-c3ccc(F)cc3)[nH]2)OC1 | 
6.96 | 7.30 | C[C@]1(C(=O)N2CCOCC2)CO[C@H](c2nc(-c3ccncc3)c(-c3ccc(F)cc3)[nH]2)OC1 | 6
6.93 |  | C=C1COC(c2nc(-c3ccncc3)c(-c3ccc(F)cc3)[nH]2)OC1 | 
6.72 |  | Fc1ccc(-c2[nH]c([C@H]3OC[C@H](Cc4ccccc4)CO3)nc2-c2ccncc2)cc1 | 
7.48 |  | C[C@]1(CN)CO[C@@H](c2nc(-c3ccncc3)c(-c3ccc(F)cc3)[nH]2)OC1 | 
6.96 | 7.36 | C[C@]1(NC(=O)c2ccccc2)CO[C@H](c2nc(-c3ccncc3)c(-c3ccc(F)cc3)[nH]2)OC1 | 11
6.70 |  | OC[C@H]1CO[C@@H](c2nc(-c3ccncc3)c(-c3ccc(F)cc3)[nH]2)OC1 | 
6.94 |  | CC(C)C1O[C@H](c2nc(-c3ccncc3)c(-c3ccc(F)cc3)[nH]2)OCC1(C)C (stereo partly specified) | 
7.08 |  | C[C@]1(CNC(=O)c2ccccc2)CO[C@H](c2nc(-c3ccncc3)c(-c3ccc(F)cc3)[nH]2)OC1 | 
6.74 |  | C[C@]1(N)CO[C@H](c2nc(-c3ccncc3)c(-c3ccc(F)cc3)[nH]2)OC1 | 
